Patent US20260315487A1, “IKK-ALPHA INHIBITORS” (Cancer Research Technology Limited, priority 2023, published 2026)

What was measured:
IKKα = target: T1, IKKα (Homo sapiens, UniProt O15111); assay: in-house DELFIA kinase assay, IKKα; format: biochemical
T1 sequence (O15111 1-745): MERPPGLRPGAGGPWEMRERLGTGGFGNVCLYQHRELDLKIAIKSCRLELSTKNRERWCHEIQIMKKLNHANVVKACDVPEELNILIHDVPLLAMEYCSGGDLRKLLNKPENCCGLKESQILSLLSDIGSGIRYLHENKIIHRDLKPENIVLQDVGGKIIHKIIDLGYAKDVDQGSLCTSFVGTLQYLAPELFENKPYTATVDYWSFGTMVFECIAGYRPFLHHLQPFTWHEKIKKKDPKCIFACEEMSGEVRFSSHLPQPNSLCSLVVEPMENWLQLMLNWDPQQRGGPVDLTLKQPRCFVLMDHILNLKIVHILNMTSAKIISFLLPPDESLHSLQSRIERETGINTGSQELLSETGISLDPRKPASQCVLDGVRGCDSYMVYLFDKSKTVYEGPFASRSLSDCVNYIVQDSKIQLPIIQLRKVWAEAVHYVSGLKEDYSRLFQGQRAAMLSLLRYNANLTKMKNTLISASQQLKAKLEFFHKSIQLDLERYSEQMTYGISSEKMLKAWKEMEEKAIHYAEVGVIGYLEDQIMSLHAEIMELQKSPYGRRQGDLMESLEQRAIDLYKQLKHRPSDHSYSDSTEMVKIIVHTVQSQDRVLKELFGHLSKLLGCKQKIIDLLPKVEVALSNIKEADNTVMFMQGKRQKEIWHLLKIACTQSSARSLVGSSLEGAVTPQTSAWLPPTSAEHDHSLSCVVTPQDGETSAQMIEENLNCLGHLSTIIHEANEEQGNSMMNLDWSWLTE
Excerpt: To examine the pyrrolo[2,3 -b]pyridines as an alternative scaffold, we adopted the AIPP core because it had similar dimensions to 1 SU909, with HBD/HBA motifs positioned at the scaffold extremities to interact with both the hinge region and the G-loop wall of IKKα, a rationale we had previously proposed as the basis for imparting selectivity. A preliminary set of AIPP derivatives was designed to explore its utility as an IKK-targeting scaffold, whilst incorporating additional functionality through which to introduce selectivity for the IKKα isoform (2-4 SU1087, SU1266 and SU1253; FIG. 3). This was achieved by initially adopting two different approaches: either appending a hydrophobic moiety to the pyrrolo[2,3 -b]pyridine motif as a fused form to afford the tricyclic derivatives 2 and 3 SU1266 and SU1087, or as a phenyl substituent to introduce flexibility with the central pyrrolo[2,3 -b]pyridine moiety in 4 SU1253 . […] The pyrrolo[2,3 -b]pyridine was bound to the hinge region in the classical HBA/HBD motif with the GK+3 NH and C═O backbone, whilst the aminoindazole projected towards the top of the pocket to interact with the G-loop (FIG. 4A). […] In both isoforms, the 2 -phenyl moiety was oriented out from the hinge towards the exposed solvent area.

IKKβ = target: T2, IKKβ (Homo sapiens, UniProt O14920); assay: in-house DELFIA kinase assay, IKKβ; format: biochemical
T2 sequence (O14920 1-756): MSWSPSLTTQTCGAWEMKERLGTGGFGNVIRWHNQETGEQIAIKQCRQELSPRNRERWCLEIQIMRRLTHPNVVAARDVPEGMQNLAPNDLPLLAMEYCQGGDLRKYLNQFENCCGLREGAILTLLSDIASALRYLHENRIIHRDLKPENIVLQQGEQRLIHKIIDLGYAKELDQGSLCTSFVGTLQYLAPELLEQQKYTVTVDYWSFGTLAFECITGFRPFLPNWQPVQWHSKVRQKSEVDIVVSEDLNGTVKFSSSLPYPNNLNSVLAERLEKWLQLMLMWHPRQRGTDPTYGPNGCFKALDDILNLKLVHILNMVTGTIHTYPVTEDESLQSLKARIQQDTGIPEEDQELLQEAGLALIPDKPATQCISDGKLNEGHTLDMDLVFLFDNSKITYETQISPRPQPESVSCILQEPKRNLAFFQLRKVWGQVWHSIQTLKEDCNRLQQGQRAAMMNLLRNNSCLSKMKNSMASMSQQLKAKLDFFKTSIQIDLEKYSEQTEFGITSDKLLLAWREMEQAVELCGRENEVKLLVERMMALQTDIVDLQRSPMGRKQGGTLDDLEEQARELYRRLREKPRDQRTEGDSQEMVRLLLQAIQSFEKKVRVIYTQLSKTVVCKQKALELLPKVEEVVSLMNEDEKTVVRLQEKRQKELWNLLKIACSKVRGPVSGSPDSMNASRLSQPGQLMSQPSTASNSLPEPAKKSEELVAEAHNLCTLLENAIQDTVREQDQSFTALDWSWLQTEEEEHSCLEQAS
Excerpt: To examine the pyrrolo[2,3 -b]pyridines as an alternative scaffold, we adopted the AIPP core because it had similar dimensions to 1 SU909, with HBD/HBA motifs positioned at the scaffold extremities to interact with both the hinge region and the G-loop wall of IKKα, a rationale we had previously proposed as the basis for imparting selectivity. A preliminary set of AIPP derivatives was designed to explore its utility as an IKK-targeting scaffold, whilst incorporating additional functionality through which to introduce selectivity for the IKKα isoform (2-4 SU1087, SU1266 and SU1253; FIG. 3). This was achieved by initially adopting two different approaches: either appending a hydrophobic moiety to the pyrrolo[2,3 -b]pyridine motif as a fused form to afford the tricyclic derivatives 2 and 3 SU1266 and SU1087, or as a phenyl substituent to introduce flexibility with the central pyrrolo[2,3 -b]pyridine moiety in 4 SU1253 .

SMILES | Ki (IKKα) | Ki (IKKβ) | IKKβ inhibition, in words (IKKβ)
Nc1n[nH]c2ccc(-c3ccnc4[nH]c5c(c34)CCCC5)cc12 [2 SU1266, 5-(6,7,8,9 -Tetrahydro-5 H-pyrido[2,3-b]indol-4-yl)-1 H-indazol-3-amine] | 2 nM | 77 nM | 
Nc1n[nH]c2ccc(-c3ccnc4[nH]c5ccccc5c34)cc12 [3 SU1087, 5-(9 H-pyrido[2,3-b]indol-4-yl)-1 H-indazol-3-amine] | 3 nM | 5 nM | 
Nc1n[nH]c2ccc(-c3ccnc4[nH]c(-c5ccccc5O)cc34)cc12 [5a SU1354, 2-(4-(3 -Amino-1 H-indazol-5-yl)-1 H-pyrrolo[2,3-b]pyridin-2-yl)phenol] | 4 nM | 42 nM | 
Nc1n[nH]c2ccc(-c3ccnc4[nH]c(-c5cccc(S(=O)(=O)N6CCOCC6)c5)cc34)cc12 [5aa SU1311, 5-(2-(3-(Morpholinosulfonyl)phenyl)-1 H-pyrrolo[2,3-b]pyridin-4-yl)-1 H-indazol-3-amine] | 25 nM | 149 nM | 
CCOc1ccccc1-c1cc2c(-c3ccc4[nH]nc(N)c4c3)ccnc2[nH]1 [5b SU1368, 5-(2-(2 -Ethoxyphenyl)-1 H-pyrrolo[2,3-b]pyridin-4-yl)-1 H-indazol-3-amine] | 8 nM | 86 nM | 
Nc1cccc(-c2cc3c(-c4ccc5[nH]nc(N)c5c4)ccnc3[nH]2)c1 [5c SU1304, 5-(2-(3 -Aminophenyl)-1 H-pyrrolo[2,3-b]pyridin-4-yl)-1 H-indazol-3-amine] | 5 nM | 28 nM | 
Nc1n[nH]c2ccc(-c3ccnc4[nH]c(-c5cccc(O)c5)cc34)cc12 [5d SU1348, 3-(4-(3 -Amino-1 H-indazol-5-yl)-1 H-pyrrolo[2,3-b]pyridin-2-yl)phenol] | 5 nM | 26 nM | 
COc1cccc(-c2cc3c(-c4ccc5[nH]nc(N)c5c4)ccnc3[nH]2)c1 [5e SU1332, 5-(2-(3 -Methoxyphenyl)-1 H-pyrrolo[2,3-b]pyridin-4-yl)-1 H-indazol-3-amine] | 5 nM | 40 nM | 
Nc1n[nH]c2ccc(-c3ccnc4[nH]c(-c5cc(O)cc(F)c5)cc34)cc12 [5f SU1384, 3-(4-(3 -Amino-1 H-indazol-5-yl)-1 H-pyrrolo[2,3-b]pyridin-2-yl)-5-fluorophenol] | 4 nM | 42 nM | 
COc1cc(F)cc(-c2cc3c(-c4ccc5[nH]nc(N)c5c4)ccnc3[nH]2)c1 [5g SU1373, 5-(2-(3 -Fluoro-5-methoxyphenyl)-1 H-pyrrolo[2,3-b]pyridin-4-yl)-1 H-indazol-3-amine] | 3 nM | 32 nM | 
Nc1n[nH]c2ccc(-c3ccnc4[nH]c(-c5cccc(C(=O)O)c5)cc34)cc12 [5h SU1303, 3-(4-(3 -Amino-1 H-indazol-5-yl)-1 H-pyrrolo[2,3-b]pyridin-2-yl)benzoic acid] | 8 nM | 168 nM | 
NC(=O)c1cccc(-c2cc3c(-c4ccc5[nH]nc(N)c5c4)ccnc3[nH]2)c1 [5i SU1294, 3-(4-(3 -Amino-1 H-indazol-5-yl)-1 H-pyrrolo[2,3-b]pyridin-2-yl)benzamide] | 5 nM | 159 nM | 
CS(=O)(=O)Nc1cccc(-c2cc3c(-c4ccc5[nH]nc(N)c5c4)ccnc3[nH]2)c1 [5j SU1288, N-(3-(4-(3 -Amino-1 H-indazol-5-yl)-1 H-pyrrolo[2,3-b]pyridin-2-yl)phenyl)methanesulfonamide] | 3 nM | 109 nM | 
CS(=O)(=O)c1cccc(-c2cc3c(-c4ccc5[nH]nc(N)c5c4)ccnc3[nH]2)c1 [5k SU1374, 5-(2-(3-(Methylsulfonyl)phenyl)-1 H-pyrrolo[2,3-b]pyridin-4-yl)-1 H-indazol-3-amine] | 3 nM | 36 nM | 
COCCC(=O)Nc1cccc(-c2cc3c(-c4ccc5[nH]nc(N)c5c4)ccnc3[nH]2)c1 [5l SU1317, N-(3-(4-(3 -Amino-1 H-indazol-5-yl)-1 H-pyrrolo[2,3-b]pyridin-2-yl)phenyl)-3-methoxypropanamide] | 6 nM | 25 nM | good IKKβ inhibition
COCCNC(=O)c1cccc(-c2cc3c(-c4ccc5[nH]nc(N)c5c4)ccnc3[nH]2)c1 [5m SU1316, 3-(4-(3 -Amino-1 H-indazol-5-yl)-1 H-pyrrolo[2,3-b]pyridin-2-yl)-N-(2-methoxyethyl)benzamide] | 15 nM | 107 nM | good IKKβ inhibition
Nc1n[nH]c2ccc(-c3ccnc4[nH]c(-c5cccc(CNc6ccccc6)c5)cc34)cc12 [5p SU1549, 5-(2-(3-((Phenylamino)methyl)phenyl)-1 H-pyrrolo[2,3-b]pyridin-4-yl)-1 H-indazol-3-amine] | 35 nM | 470 nM | lowest activity against IKKβ
Nc1n[nH]c2ccc(-c3ccnc4[nH]c(-c5ccccc5OCc5ccccc5)cc34)cc12 [5q SU1353, 5-(2-(2-(Benzyloxy)phenyl)-1 H-pyrrolo[2,3-b]pyridin-4-yl)-1 H-indazol-3-amine] | 57 nM | 1060 nM | lowest activity against IKKβ
Cc1ccc(S(=O)(=O)Nc2cccc(-c3cc4c(-c5ccc6[nH]nc(N)c6c5)ccnc4[nH]3)c2)cc1 [5t SU1278, N-(3-(4-(3 -Amino-1 H-indazol-5-yl)-1 H-pyrrolo[2,3-b]pyridin-2-yl)phenyl)-4-methylbenzensulfonamide] | 10 nM | 1050 nM | lowest activity against IKKβ
CN1CCN(C(=O)c2cccc(-c3cc4c(-c5ccc6[nH]nc(N)c6c5)ccnc4[nH]3)c2)CC1 [5v SU1312, (3-(4-(3 Amino-1 H-indazol-5-yl)-1 H-pyrrolo[2,3-b]pyridin-2-yl)phenyl)(4-methylpiperazin-1-y)methanone] | 24 nM | 215 nM | 
Nc1n[nH]c2ccc(-c3ccnc4[nH]c(-c5cccc(OCc6ccccn6)c5)cc34)cc12 [5w SU1324, 5-(2-(3-(pyridin-2-ylmethoxy)phenyl)-1 H-pyrrolo[2,3-b]pyridin-4-yl)-1 H-indazol-3-amine] | 16 nM | 402 nM | lowest activity against IKKβ
Nc1n[nH]c2ccc(-c3ccnc4[nH]c(-c5cccc(OCC6CCOCC6)c5)cc34)cc12 [5x SU1335, 5-(2-(3-((Tetrahydro-2 H-pyran-4-yl)methoxy)phenyl)-1 H-pyrrolo[2,3-b]pyridin-4-yl)-1 H-indazol-3-amine] | 8 nM | 122 nM | good IKKβ inhibition
